From ChEMBL document CHEMBL4007467, “Effects of 6-paradol, an unsaturated ketone from gingers, on cytochrome P450-mediated drug metabolism” (Bioorg Med Chem Lett, 2017)

What was measured:
Assay type in all cases: ADME
CYP3A4 [1] = molecular target: T1, CYP3A4 (Homo sapiens, UniProt P08684); assay: Inhibition of CYP3A4 in human liver microsomes assessed as enzyme-mediated metabolite formation at 1 uM using testosterone as substrate incubated for 5 mins followed by NADPH addition measured after 30 mins by LC-MS/MS analysis relative to control; set-up: scale not given: the % may be the effect or the level left; details: probe testosterone, read-out: Activity
Cytochrome P450 1A2 = molecular target: T2, Cytochrome P450 1A2 (Homo sapiens, UniProt P05177); assay: Inhibition of human CYP1A2 using phenacetin as substrate incubated for 5 mins followed by NADPH addition measured after 30 mins by LC-MS/MS analysis
T2 sequence (P05177 whole entry): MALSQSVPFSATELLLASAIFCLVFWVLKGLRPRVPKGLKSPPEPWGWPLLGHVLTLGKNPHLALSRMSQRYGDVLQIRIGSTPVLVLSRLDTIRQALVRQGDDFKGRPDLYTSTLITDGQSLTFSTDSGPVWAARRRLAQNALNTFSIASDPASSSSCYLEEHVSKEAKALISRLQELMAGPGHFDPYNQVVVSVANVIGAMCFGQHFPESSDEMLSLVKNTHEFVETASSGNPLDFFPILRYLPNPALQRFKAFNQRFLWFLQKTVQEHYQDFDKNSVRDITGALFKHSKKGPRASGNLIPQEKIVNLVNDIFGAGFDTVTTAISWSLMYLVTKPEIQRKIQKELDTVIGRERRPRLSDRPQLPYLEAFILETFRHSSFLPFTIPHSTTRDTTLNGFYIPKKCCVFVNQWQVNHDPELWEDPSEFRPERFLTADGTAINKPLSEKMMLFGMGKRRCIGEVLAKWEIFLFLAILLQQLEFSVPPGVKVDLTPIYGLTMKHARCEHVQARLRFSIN

CYP2C8 [2] = molecular target: T3, CYP2C8 (Homo sapiens, UniProt P10632); assay: Inhibition of CYP2C8 in human liver microsomes assessed as enzyme-mediated metabolite formation at 0.1 uM using paclitaxel as substrate preincubated for 20 mins followed by substrate addition measured after 30 mins in presence of NADPH by LC-MS/MS analysis relative to control; set-up: scale not given: the % may be the effect or the level left; details: probe paclitaxel, read-out: Activity
T3 sequence (P10632 whole entry): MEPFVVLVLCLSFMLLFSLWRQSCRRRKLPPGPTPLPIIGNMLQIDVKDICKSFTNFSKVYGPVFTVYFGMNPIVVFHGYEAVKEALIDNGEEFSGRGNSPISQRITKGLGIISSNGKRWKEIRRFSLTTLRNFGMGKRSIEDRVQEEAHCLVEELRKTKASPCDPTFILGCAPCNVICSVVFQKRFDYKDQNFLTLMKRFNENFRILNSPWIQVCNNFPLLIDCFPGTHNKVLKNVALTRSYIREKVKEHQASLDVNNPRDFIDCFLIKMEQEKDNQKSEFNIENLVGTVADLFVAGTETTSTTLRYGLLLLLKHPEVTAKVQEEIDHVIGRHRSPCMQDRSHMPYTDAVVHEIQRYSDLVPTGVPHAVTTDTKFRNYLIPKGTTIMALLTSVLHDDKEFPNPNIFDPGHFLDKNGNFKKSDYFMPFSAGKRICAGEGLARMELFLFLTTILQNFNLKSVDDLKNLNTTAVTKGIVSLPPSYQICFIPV

CYP2C8 [3] = molecular target: T3, CYP2C8; assay: Inhibition of CYP2C8 in human liver microsomes assessed as enzyme-mediated metabolite formation at 0.3 uM using paclitaxel as substrate preincubated for 20 mins followed by substrate addition measured after 30 mins in presence of NADPH by LC-MS/MS analysis relative to control; set-up: scale not given: the % may be the effect or the level left; details: probe paclitaxel, read-out: Activity
Cytochrome P450 2C9 = Cytochrome P450 2C9 (Homo sapiens, UniProt P11712); assay: Inhibition of human CYP2C9 using diclofenac as substrate incubated for 5 mins followed by NADPH addition measured after 30 mins by LC-MS/MS analysis
CYP3A4 [4] = molecular target: T1, CYP3A4; assay: Inhibition of CYP3A4 in human liver microsomes assessed as enzyme-mediated metabolite formation at 0.3 uM using testosterone as substrate incubated for 5 mins followed by NADPH addition measured after 30 mins by LC-MS/MS analysis relative to control; set-up: scale not given: the % may be the effect or the level left; details: probe testosterone, read-out: Activity
CYP2D6 [5] = molecular target: T4, CYP2D6 (Homo sapiens, UniProt P10635); assay: Inhibition of CYP2D6 in human liver microsomes assessed as enzyme-mediated metabolite formation at 0.3 uM using dextromethorphan as substrate preincubated for 20 mins followed by substrate addition measured after 30 mins in presence of NADPH by LC-MS/MS analysis relative to control; set-up: scale not given: the % may be the effect or the level left; details: probe dextromethorphan, read-out: Activity
CYP2C19 = CYP2C19 (Homo sapiens, UniProt P33261); assay: Inhibition of CYP2C19 in human liver microsomes assessed as enzyme-mediated metabolite formation at 1 uM using (S)-mephenytoin as substrate preincubated for 20 mins followed by substrate addition measured after 30 mins in presence of NADPH by LC-MS/MS analysis relative to control; set-up: scale not given: the % may be the effect or the level left; details: probe (S)-mephenytoin, read-out: Activity
Cytochrome P450 2C8 [6] = molecular target: T5, Cytochrome P450 2C8 (Homo sapiens, UniProt P10632); assay: Inhibition of human CYP2C8 using paclitaxel as substrate incubated for 5 mins followed by NADPH addition measured after 30 mins by LC-MS/MS analysis
T5 sequence (P10632 whole entry): T3 sequence (P10632 whole entry)

CYP2A6 = molecular target: T6, CYP2A6 (Homo sapiens, UniProt P11509); assay: Inhibition of CYP2A6 in human liver microsomes assessed as enzyme-mediated metabolite formation at 0.3 uM using coumarin as substrate preincubated for 20 mins followed by substrate addition measured after 30 mins in presence of NADPH by LC-MS/MS analysis relative to control; set-up: scale not given: the % may be the effect or the level left; details: probe coumarin, read-out: Activity
T6 sequence (P11509 whole entry): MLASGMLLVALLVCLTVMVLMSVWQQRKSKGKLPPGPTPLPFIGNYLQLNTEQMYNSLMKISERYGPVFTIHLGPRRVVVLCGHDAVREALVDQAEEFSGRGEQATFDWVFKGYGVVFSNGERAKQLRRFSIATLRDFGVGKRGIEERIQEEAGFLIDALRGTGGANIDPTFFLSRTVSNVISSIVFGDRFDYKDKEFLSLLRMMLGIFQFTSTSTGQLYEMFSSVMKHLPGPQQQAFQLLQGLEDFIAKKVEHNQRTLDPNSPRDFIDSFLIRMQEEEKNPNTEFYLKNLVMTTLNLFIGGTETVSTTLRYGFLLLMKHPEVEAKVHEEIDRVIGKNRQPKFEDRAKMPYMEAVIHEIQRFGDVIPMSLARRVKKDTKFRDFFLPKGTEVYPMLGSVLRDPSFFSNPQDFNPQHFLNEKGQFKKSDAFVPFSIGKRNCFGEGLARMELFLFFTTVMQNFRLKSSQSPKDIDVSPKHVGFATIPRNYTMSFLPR

Cytochrome P450 2C8 [7] = molecular target: T5, Cytochrome P450 2C8; assay: Inhibition of CYP2C8 in human liver microsomes using paclitaxel as substrate preincubated for 20 mins followed by substrate addition measured after 30 mins in presence of NADPH by LC-MS/MS analysis
Cytochrome P450 2C8 [8] = molecular target: T5, Cytochrome P450 2C8; assay: Inhibition of CYP2C8 in human liver microsomes assessed as enzyme-mediated metabolite formation using paclitaxel as substrate incubated for 5 mins followed by NADPH addition measured after 30 mins by LC-MS/MS analysis
CYP2D6 [9] = molecular target: T4, CYP2D6; assay: Inhibition of CYP2D6 in human liver microsomes assessed as enzyme-mediated metabolite formation at 0.1 uM using dextromethorphan as substrate incubated for 5 mins followed by NADPH addition measured after 30 mins by LC-MS/MS analysis relative to control; set-up: scale not given: the % may be the effect or the level left; details: probe dextromethorphan, read-out: Activity

T1 sequence (P08684 whole entry): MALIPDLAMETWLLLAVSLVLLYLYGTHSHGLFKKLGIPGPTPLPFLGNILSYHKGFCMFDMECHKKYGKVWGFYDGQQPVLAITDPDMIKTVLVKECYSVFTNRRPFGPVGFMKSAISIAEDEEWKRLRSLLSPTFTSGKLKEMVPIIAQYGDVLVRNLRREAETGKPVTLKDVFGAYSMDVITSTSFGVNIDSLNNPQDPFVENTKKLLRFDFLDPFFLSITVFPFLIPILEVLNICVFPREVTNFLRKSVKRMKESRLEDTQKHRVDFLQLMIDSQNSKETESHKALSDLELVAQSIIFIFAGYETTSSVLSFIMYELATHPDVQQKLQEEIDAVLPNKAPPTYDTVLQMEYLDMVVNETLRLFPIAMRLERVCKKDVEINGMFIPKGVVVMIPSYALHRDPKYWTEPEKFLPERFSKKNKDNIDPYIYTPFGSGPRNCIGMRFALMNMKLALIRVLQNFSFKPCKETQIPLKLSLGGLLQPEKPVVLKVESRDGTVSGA
Sequence of Cytochrome P450 2C9 (P11712 whole entry): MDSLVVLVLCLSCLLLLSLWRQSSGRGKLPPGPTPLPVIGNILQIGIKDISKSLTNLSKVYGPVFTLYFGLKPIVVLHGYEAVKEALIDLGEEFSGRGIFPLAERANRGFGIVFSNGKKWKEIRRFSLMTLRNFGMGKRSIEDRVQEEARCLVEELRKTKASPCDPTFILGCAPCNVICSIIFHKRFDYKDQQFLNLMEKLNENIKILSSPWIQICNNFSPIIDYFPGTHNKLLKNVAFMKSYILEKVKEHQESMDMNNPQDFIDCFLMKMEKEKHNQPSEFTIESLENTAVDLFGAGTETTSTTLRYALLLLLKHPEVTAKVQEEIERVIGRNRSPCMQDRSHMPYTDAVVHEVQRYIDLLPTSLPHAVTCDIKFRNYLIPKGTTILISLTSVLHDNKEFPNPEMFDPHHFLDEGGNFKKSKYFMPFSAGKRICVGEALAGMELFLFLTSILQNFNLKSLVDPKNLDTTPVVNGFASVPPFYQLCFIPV
T4 sequence (P10635 whole entry): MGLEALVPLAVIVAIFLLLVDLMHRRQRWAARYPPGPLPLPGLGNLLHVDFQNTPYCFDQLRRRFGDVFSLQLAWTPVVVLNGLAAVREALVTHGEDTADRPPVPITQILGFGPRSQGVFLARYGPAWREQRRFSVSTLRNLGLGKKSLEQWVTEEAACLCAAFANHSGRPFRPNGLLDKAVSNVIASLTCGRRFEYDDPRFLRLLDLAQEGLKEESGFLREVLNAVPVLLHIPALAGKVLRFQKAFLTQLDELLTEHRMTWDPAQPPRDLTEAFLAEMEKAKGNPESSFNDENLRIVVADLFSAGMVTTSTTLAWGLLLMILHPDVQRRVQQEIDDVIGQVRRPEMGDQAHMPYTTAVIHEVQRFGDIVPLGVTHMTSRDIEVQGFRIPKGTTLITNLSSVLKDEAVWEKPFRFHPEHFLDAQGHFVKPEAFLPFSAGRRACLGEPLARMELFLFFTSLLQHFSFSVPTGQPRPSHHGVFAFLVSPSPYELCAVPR
Sequence of CYP2C19 (P33261 whole entry): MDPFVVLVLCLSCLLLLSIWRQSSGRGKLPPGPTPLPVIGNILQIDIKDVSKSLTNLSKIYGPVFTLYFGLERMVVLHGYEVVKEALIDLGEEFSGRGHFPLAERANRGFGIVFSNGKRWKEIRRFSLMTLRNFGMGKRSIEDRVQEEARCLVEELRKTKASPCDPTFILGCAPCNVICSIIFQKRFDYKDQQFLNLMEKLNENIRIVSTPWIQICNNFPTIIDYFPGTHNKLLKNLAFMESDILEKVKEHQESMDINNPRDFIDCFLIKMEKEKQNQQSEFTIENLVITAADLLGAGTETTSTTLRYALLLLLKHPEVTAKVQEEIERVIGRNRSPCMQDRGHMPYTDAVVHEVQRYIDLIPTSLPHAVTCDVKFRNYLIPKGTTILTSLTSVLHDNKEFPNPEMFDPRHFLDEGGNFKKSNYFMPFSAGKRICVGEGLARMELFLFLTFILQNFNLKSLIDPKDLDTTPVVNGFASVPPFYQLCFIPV

- activity at 0.5 h, 1 µM (CYP3A4 [1]): 65.6%
- IC50 (Cytochrome P450 1A2): 21.4 µM
- inhibition (INH) (Cytochrome P450 1A2; human, 0.5 h): Dose-dependent effect
- activity at 0.5 h, 0.1 µM (CYP2C8 [2]): 83.2%
- activity at 0.5 h, 0.3 µM (CYP2C8 [3]): 77.2%
- IC50 (Cytochrome P450 2C9): 10.5 µM
- inhibition (INH) (Cytochrome P450 2C9; human, 0.5 h): Dose-dependent effect
- activity at 0.5 h, 0.3 µM (CYP3A4 [4]): 75.2%
- activity at 0.5 h, 0.3 µM (CYP2D6 [5]): 87%
- activity at 0.5 h, 1 µM (CYP2C19): 72.1%
- IC50 (Cytochrome P450 2C8 [6]): 3.8 µM
- inhibition (INH) (Cytochrome P450 2C8 [6]; human, 0.5 h): Dose-dependent effect
- activity at 0.5 h, 0.3 µM (CYP2A6): 103%
- IC50 (Cytochrome P450 2C8 [7]): 8.3 µM
- IC50 (Cytochrome P450 2C8 [8]): 5.1 µM
- activity at 0.5 h, 0.1 µM (CYP2D6 [9]): 112%
SMILES: CCCCCCCC(=O)CCc1ccc(O)c(OC)c1
